Where a name gives a salt, the structure may show the parent alone. Read-outs that look alike come from different tables or passages of the source.
Assays:
[1] = target: T1, mTOR (Homo sapiens, UniProt P42345); test: mTOR kinobeads assay (competitive binding in Jurkat cell lysate, immunodetection)
T1 construct: endogenous in cells; host or cells: Jurkat, clone E6-1 (ATCC TIB-152) cell lysate
Procedure: The compounds of the present invention as described were tested in the mTOR kinobeads assay as described below. […] After the incubation time the beads with captured proteins were separated from the lysate. Bound proteins were then eluted and the presence of mTOR, PI3K delta (PI3 Kd) and DNA-dependent protein kinase (DNA-PK) was detected and quantified using a specific antibody in a dot blot procedure and the Odyssey infrared detection system.
(§1) The kinobeads assay was performed as a competitive binding assay in which test compounds were added directly into a cell lysate. Test compounds (at various concentrations) and the affinity matrix (beads with immobilized phenylmorpholin-chromen ligand) were added to cell lysate aliquots and allowed to bind to the proteins contained in the lysate sample. After the incubation time the beads with captured proteins were separated from the lysate. Bound proteins were then eluted and the presence of kinases was detected and quantified using a multiplexed immunodetection format. Dose response curves for individual kinases were generated and IC50 values calculated.
(§2) 5×DP buffer: 250 mM Tris-HCl pH 7.4, 25% Glycerol, 7.5 mM MgCl2, 750 mM NaCl, 5 mM Na3VO4, filter the 5×-lysis buffer through 0.22 μm filter and store in aliquots at −80° C. The 5×DP buffer is diluted to 1×DP buffer containing 1 mM DTT and 25 mM NaF.
(§3) Stock solutions of test compounds were prepared in DMSO. In a 96 well plate 30 μl solution of diluted test compounds at 5 mM in DMSO were prepared. Starting with this solution a 1:3 dilution series (9 steps) was prepared. For control experiments (no test compound) a buffer containing 2% DMSO was used.
Jurkat cells were homogenized in a Potter S homogenizer in lysis buffer: 50 mM Tris-HCl, 0.8% NP40, 5% glycerol, 150 mM NaCl, 1.5 mM MgCl2, 25 mM NaF, 1 mM sodium vanadate, 1 mM DTT, pH 7.5. […] The material was dounced 10 times using a mechanized POTTER S, transferred to 50 ml falcon tubes, incubated for 30 minutes on ice and spun down for 10 min at 20,000 g at 4° C. (10,000 rpm in Sorvall SLA600, precooled). […] (33.500 rpm in Ti50.2, precooled). The supernatant was transferred again to a fresh 50 ml falcon tube, the protein concentration was determined by a Bradford assay (BioRad) and samples containing 50 mg of protein per aliquot were prepared. The samples were immediately used for experiments or frozen in liquid nitrogen and stored frozen at −80° C.
Jurkat cell lysate (approximately 50 mg protein per plate) was thawed in a water bath at room temperature and then kept on ice. […] The diluted cell lysate was stored on ice.
Plates were sealed and incubated for two hours in a cold room on a Thermoxer with shaking (750 rpm). Afterwards the plate was washed twice with 230 μl washing buffer (1×DP 0.4% NP40). […] The eluate was frozen quickly at −80° C. and stored at −20° C.
The kinases in the eluates were detected and quantified by spotting on Nitrocellulose membranes and using a first antibody directed against the kinase of interest and a fluorescently labeled secondary antibody (anti-mouse or anti-rabbit IRDye™ antibodies from Rockland).
Afterwards the membrane was washed three times for 10 minutes with PBS buffer containing 0.1% Tween 20 at room temperature. […] Afterwards the membrane was washed three times for 10 minutes each with 1×PBS buffer containing 0.1% Tween 20 at room temperature. Then the membrane was rinsed once with PBS buffer to remove residual Tween 20. The membrane was kept in PBS buffer at 4° C. and then scanned with the Odyssey instrument. Fluorescence signals were recorded and analysed according to the instructions of the manufacturer.

[2] = target: T2, PI3 Kgamma (PI3 Kg) (Homo sapiens, UniProt P48736); test: kinobeads assay, PI3Kgamma; assay type: binding
T2 construct: endogenous in cells; host or cells: cell lysate
Procedure: as §1
(§4) The effect of the compounds on the kinases PI3Kalpha (PI3Ka), PI3 Kbeta (PI3 Kb) and PI3 Kgamma (PI3 Kg) were tested in the kinobeads assay as described (WO-A 2009/098021).

[3] = target: T3, DNA-dependent protein kinase (DNA-PK) (Homo sapiens, UniProt P78527); test: kinobeads assay, DNA-PK; assay type: binding
T3 construct: endogenous in cells; host or cells: Jurkat, clone E6-1 (ATCC TIB-152) cell lysate
Procedure: (§5) The compounds of the present invention as described were tested in the mTOR kinobeads assay as described below. Briefly, test compounds (at various concentrations) and the affinity matrix with the immobilized phenylmorpholin-chromen ligand (8-(4-aminomethyl-phenyl)-2-morpholin-4-yl-chromen-4-one) were added to cell lysate aliquots and allowed to bind to the proteins in the lysate sample. After the incubation time the beads with captured proteins were separated from the lysate. Bound proteins were then eluted and the presence of mTOR, PI3K delta (PI3 Kd) and DNA-dependent protein kinase (DNA-PK) was detected and quantified using a specific antibody in a dot blot procedure and the Odyssey infrared detection system. Kinobeads assays for PI3K (WO-A 2008/015013) and for kinase selectivity profiling (WO 2006/134056) have been previously described.
as §1
(§6) The affinity matrix (beads with immobilized phenylmorpholin-chromen ligand) was washed two times with 15 ml of 1×DP buffer containing 0.2% NP40 (IGEPAL® CA-630, Sigma, #13021) and then resupended in 5.5 ml of 1×DP buffer containing 0.2% NP40 (10% beads slurry).
as §2
as §3, with “used. Compound CZC00018052 served as a positive control (PI-103; Calbiochem catalogue number 528100).” for “used.”
(§7) Jurkat cells (ATCC catalogue number TIB-152 Jurkat, clone E6-1) were grown in 1 liter Spinner flasks (Integra Biosciences, #182101) in suspension in RPMI 1640 medium (Invitrogen, #21875-034) supplemented with 10% Fetal Bovine Serum (Invitrogen) at a density between 0.15×10^6 and 1.2×10^6 cells/ml. Cells were harvested by centrifugation, washed once with 1×PBS buffer (Invitrogen, #14190-094) and cell pellets were frozen in liquid nitrogen and subsequently stored at −80° C.
(§8) Jurkat cells were homogenized in a Potter S homogenizer in lysis buffer: 50 mM Tris-HCl, 0.8% NP40, 5% glycerol, 150 mM NaCl, 1.5 mM MgCl2, 25 mM NaF, 1 mM sodium vanadate, 1 mM DTT, pH 7.5. One complete EDTA-free tablet (protease inhibitor cocktail, Roche Diagnostics, 1873580) per 25 ml buffer was added. The material was dounced 10 times using a mechanized POTTER S, transferred to 50 ml falcon tubes, incubated for 30 minutes on ice and spun down for 10 min at 20,000 g at 4° C. (10,000 rpm in Sorvall SLA600, precooled). The supernatant was transferred to an ultracentrifuge (UZ)-polycarbonate tube (Beckmann, 355654) and spun for 1 hour at 100.000 g at 4° C. (33.500 rpm in Ti50.2, precooled). The supernatant was transferred again to a fresh 50 ml falcon tube, the protein concentration was determined by a Bradford assay (BioRad) and samples containing 50 mg of protein per aliquot were prepared. The samples were immediately used for experiments or frozen in liquid nitrogen and stored frozen at −80° C. […]

[4] = target: T4, PI3Kalpha (PI3Ka) (Homo sapiens, UniProt P42336); test: kinobeads assay, PI3Kalpha; assay type: binding
T4 construct: endogenous in cells; host or cells: cell lysate
Procedure: as §1, §4

[5] = target: T5, PI3K delta (PI3 Kd) (Homo sapiens, UniProt O00329); test: kinobeads assay, PI3K delta; assay type: binding
T5 construct: endogenous in cells; host or cells: Jurkat, clone E6-1 (ATCC TIB-152) cell lysate
Procedure: as §5, §1, §6, §2
as §3, with “used. Compound CZC00018052 served as a positive control (PI-103; Calbiochem catalogue number 528100).” for “used.”
as §7, §8

[6] = target: T6, PI3 Kbeta (PI3 Kb) (Homo sapiens, UniProt P42338); test: kinobeads assay, PI3Kbeta; assay type: binding
T6 construct: endogenous in cells; host or cells: cell lysate
Procedure: as §1, §4

[7] = Further Kinobeads Data, read-out: mTor
[8] = Further Kinobeads Data, read-out: PI3Kg
[9] = Further Kinobeads Data, read-out: DNAPK
[10] = Further Kinobeads Data, read-out: PI3Kd
[11] = Further Kinobeads Data, read-out: PI3Kb
[12] = kinobeads assay, Table 6, read-out: Inhibition values (IC50) mTOR
[13] = kinobeads assay, Table 6, read-out: Inhibition values (IC50) PI3Kg
[14] = kinobeads assay, Table 6, read-out: Inhibition values (IC50) DNAPK
[15] = kinobeads assay, Table 6, read-out: Inhibition values (IC50) PI3Ka
[16] = kinobeads assay, Table 6, read-out: Inhibition values (IC50) PI3Kd
[17] = kinobeads assay, Table 6, read-out: Inhibition values (IC50) PI3Kb

T5 sequence (O00329 whole entry): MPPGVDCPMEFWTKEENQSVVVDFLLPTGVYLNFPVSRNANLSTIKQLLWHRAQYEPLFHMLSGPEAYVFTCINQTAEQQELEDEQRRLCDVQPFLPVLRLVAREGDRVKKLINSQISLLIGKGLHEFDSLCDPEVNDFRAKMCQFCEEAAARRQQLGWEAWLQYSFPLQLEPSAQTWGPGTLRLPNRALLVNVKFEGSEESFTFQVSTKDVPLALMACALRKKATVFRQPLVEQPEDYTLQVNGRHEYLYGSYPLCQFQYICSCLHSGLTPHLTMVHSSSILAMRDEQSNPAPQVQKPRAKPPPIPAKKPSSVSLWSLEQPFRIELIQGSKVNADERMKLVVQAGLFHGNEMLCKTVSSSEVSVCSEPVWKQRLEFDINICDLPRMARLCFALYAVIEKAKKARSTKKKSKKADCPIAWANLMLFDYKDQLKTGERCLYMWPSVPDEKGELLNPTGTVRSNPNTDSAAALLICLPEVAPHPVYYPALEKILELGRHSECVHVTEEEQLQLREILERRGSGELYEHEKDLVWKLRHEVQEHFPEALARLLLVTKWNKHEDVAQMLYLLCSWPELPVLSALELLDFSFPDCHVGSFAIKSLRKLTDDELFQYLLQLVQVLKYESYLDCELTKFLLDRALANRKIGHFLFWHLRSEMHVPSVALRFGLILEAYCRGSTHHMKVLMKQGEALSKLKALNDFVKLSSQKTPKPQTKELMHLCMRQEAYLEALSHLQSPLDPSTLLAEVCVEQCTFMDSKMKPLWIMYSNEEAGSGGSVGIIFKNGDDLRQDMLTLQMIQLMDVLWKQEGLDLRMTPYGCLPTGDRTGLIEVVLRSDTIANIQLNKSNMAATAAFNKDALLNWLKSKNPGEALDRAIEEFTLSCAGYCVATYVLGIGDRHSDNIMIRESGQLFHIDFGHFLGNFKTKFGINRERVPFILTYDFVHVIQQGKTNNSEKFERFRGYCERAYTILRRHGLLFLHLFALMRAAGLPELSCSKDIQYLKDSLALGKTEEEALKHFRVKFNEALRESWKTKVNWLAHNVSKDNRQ
T5 sequence (P27986 whole entry partner): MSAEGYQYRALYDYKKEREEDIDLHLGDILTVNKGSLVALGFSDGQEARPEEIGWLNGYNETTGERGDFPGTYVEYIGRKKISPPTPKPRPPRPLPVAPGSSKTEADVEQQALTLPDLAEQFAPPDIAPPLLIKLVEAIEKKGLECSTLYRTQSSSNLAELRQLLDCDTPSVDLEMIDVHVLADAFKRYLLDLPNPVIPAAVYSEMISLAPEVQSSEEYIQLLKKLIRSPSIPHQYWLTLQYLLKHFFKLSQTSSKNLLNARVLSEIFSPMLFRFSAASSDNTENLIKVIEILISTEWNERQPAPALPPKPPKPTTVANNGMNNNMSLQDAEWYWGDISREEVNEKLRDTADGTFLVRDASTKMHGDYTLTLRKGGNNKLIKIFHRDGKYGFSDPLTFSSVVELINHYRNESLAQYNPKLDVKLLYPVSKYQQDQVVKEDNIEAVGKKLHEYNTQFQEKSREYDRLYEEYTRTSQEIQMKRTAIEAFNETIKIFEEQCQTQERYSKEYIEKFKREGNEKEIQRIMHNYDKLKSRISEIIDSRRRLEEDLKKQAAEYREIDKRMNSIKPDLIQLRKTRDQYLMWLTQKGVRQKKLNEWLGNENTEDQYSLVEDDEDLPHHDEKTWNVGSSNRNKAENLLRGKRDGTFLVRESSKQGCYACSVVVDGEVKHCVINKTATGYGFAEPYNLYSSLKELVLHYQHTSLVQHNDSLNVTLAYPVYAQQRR
T2 sequence (P48736 whole entry): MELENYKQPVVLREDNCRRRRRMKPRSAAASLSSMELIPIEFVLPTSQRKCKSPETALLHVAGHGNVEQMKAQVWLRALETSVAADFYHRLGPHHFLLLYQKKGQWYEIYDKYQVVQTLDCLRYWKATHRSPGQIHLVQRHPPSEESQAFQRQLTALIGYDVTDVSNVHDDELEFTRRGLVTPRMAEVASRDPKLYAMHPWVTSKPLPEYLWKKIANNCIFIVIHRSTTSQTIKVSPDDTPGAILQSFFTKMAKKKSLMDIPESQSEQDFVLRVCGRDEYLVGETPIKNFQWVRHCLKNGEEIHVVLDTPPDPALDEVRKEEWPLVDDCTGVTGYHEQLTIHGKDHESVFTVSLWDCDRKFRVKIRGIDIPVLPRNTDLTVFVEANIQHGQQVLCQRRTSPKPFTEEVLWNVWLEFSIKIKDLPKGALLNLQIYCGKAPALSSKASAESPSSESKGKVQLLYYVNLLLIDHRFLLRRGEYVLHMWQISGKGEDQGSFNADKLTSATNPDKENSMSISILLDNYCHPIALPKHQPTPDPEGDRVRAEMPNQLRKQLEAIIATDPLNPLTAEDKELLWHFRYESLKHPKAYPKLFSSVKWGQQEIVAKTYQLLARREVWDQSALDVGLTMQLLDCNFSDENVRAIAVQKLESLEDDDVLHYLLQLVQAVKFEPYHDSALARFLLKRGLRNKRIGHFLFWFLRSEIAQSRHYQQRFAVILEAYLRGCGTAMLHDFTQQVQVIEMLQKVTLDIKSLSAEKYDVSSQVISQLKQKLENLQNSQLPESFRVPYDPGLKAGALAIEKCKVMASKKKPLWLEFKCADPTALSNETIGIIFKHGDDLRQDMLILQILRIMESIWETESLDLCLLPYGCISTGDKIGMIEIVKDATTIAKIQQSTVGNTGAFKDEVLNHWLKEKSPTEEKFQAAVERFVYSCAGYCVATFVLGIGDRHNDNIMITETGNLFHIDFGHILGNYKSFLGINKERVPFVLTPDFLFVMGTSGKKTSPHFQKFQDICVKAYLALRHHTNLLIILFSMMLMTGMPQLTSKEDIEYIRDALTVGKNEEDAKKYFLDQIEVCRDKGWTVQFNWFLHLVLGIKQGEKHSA
T4 sequence (P42336 whole entry): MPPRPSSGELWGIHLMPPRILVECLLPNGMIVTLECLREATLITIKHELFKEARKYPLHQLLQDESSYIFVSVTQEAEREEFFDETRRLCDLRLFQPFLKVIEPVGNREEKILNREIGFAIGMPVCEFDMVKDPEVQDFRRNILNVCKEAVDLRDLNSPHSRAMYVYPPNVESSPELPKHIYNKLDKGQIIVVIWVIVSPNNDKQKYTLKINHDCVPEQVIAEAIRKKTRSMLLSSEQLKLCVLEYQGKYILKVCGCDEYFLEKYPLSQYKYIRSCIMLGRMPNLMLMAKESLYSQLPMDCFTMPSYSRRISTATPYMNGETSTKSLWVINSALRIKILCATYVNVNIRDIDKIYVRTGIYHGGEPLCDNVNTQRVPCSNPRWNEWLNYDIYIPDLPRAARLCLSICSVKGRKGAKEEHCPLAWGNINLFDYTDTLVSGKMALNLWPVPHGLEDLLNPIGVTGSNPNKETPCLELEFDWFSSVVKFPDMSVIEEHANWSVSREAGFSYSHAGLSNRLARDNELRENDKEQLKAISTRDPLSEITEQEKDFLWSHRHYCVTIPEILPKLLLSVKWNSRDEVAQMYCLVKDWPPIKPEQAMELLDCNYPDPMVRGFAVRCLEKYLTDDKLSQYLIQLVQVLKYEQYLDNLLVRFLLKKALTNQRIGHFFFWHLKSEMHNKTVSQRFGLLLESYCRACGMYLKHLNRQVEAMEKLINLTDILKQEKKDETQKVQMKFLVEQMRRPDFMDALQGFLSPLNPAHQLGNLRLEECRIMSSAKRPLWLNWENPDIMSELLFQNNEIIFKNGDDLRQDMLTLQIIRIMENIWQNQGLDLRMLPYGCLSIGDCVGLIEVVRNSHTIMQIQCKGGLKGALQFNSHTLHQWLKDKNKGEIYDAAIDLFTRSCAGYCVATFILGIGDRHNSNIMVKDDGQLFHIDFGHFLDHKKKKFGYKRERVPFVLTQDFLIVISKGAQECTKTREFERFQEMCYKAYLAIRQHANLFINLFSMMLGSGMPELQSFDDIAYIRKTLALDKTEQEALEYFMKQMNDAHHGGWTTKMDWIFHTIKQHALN
T4 sequence (P27986 whole entry partner): as the sequence (P27986 whole entry partner) above
T6 sequence (P42338 whole entry): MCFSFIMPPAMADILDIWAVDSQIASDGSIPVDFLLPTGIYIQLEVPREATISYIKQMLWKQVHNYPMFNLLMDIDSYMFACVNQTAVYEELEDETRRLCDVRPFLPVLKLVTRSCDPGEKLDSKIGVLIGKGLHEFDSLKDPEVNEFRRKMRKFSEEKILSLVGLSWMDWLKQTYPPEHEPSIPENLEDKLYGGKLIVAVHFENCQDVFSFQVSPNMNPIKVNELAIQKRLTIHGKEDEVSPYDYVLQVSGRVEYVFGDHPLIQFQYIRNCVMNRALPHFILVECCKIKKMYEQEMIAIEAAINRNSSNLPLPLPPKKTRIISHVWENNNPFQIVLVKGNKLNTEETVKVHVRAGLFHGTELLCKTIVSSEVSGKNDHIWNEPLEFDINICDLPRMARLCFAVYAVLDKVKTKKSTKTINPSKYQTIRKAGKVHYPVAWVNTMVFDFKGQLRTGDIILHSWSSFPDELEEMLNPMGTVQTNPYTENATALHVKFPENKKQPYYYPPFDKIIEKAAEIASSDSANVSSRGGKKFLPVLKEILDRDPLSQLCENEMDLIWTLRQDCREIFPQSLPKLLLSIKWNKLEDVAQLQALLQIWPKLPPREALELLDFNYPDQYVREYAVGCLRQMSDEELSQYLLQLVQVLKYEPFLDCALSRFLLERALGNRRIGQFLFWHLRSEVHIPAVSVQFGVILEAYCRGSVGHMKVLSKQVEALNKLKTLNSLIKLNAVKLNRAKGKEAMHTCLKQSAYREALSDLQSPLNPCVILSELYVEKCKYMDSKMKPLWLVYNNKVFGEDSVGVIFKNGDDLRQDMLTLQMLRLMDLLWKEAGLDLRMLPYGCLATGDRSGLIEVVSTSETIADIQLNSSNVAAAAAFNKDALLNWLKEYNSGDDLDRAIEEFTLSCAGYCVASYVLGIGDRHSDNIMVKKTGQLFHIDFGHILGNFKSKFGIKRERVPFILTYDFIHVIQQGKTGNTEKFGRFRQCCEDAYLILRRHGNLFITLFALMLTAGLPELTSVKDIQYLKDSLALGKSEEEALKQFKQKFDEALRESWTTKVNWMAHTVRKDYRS
T6 sequence (P27986 whole entry partner): as the sequence (P27986 whole entry partner) above

Row | SMILES | IC50 [1, 7] [µM] | IC50 [2, 8] [µM] | IC50 [3, 9] [µM] | PI3Ka ([4]; Further Kinobeads Data) | IC50 [5, 10] [µM] | IC50 [6, 11] [µM] | IC50 ([4]; Further Kinobeads Data, read-out: PI3Ka) [µM] | IC50 [1, 12] [µM] | IC50 [2, 13] [µM] | IC50 [3, 14] [µM] | IC50 [4, 15] [µM] | IC50 [5, 16] [µM] | IC50 [6, 17] [µM] | Inhibition values (IC50) PI3Ka ([4]; kinobeads assay, Table 6)
1 | Cl.O=C(Nc1ccc(-c2nc3c(c(N4CCOCC4)n2)CNC3)c(F)c1)NC1CC1 [Example 148, 1-(Cyclopropyl)-3-(3-fluoro-4-(4-morpholino-6,7-dihydro-5H-pyrrolo[3,4-d]pyrimidin-2-yl)phenyl)urea hydrochloride] | < 0.1 | > 10 | > 10 | D (D >10 μM) | > 10 | > 10 |  |  |  |  |  |  |  | 
2 | CCNC(=O)Nc1c(F)cc(-c2nc3c(c(N4CCOC[C@@H]4C)n2)CN(C)C3)cc1F [Example 139, (S)-1-(2,6-difluoro-4-(6-methyl-4-(3-methylmorpholino)-6,7-dihydro-5H-pyrrolo[3,4-d]pyrimidin-2-yl)phenyl)-3-ethylurea] | 1 to 10 | > 10 | > 10 | D (D >10 μM) | > 10 | > 10 |  |  |  |  |  |  |  | 
3 | C[C@H]1COCCN1c1nc(-c2ccc(NC(=O)NC3CC3)cc2F)nc2c1CNC2 [Example 149, (S)-1-(Cyclopropyl)-3-(3-fluoro-4-(4-(3-methylmorpholino)-6,7-dihydro-5H-pyrrolo[3,4-d]pyrimidin-2-yl)phenyl)urea hydrochloride] | 0.1 to 1 | > 10 | > 10 |  | > 10 | > 10 | 1 to 10 |  |  |  |  |  |  | 
4 | C[C@H]1COCCN1c1nc(-c2ccc(NC(=O)NC3CC3)cc2)nc2c1CN(C(=O)CCNC(N)=O)C2 [Example 136, (S)-1-cyclopropyl-3-(4-(4-(3-methylmorpholino)-6-(3-ureidopropanoyl)-6,7-dihydro-5H-pyrrolo[3,4-d]pyrimidin-2-yl)phenyl)urea] |  |  |  |  |  |  |  | < 0.1 | > 10 | > 10 | 1 to 10 | 1 to 10 | 1 to 10 | 
5 | CCOC(=O)N1Cc2nc(-c3ccc(NC(=O)NCC(=O)NC)cc3)nc(N3CCOC[C@@H]3C)c2C1 [Example 125, (S)-ethyl 2-(4-(3-(2-(methylamino)-2-oxoethyl)ureido)phenyl)-4-(3-methylmorpholino)-5H-pyrrolo[3,4-d]pyrimidine-6(7H)-carboxylate] |  |  |  |  |  |  |  | 0.1 to 1 | 1 to 10 | > 10 |  | 0.1 to 1 | 1 to 10 | B (B >0.1 μM < 1 μM)
6 | CC(=O)N1Cc2nc(-c3ccc(NC(=O)NC4CC4)cc3F)nc(N3CCOCC3)c2C1 [Example 166, 1-(4-(6-Acetyl-4-morpholino-6,7-dihydro-5H-pyrrolo[3,4-d]pyrimidin-2-yl)-3-fluorophenyl)-3-cyclopropylurea] | < 0.1 | > 10 | > 10 | D (D >10 μM) | > 10 | > 10 |  |  |  |  |  |  |  | 
7 | C[C@H]1COCCN1c1nc(-c2ccc(NC(=O)NC3CC3)cc2)nc2c1CN(C(=O)CCC(N)=O)C2 [Example 127, (S)-4-(2-(4-(3-cyclopropylureido)phenyl)-4-(3-methylmorpholino)-5H-pyrrolo[3,4-d]pyrimidin-6(7H)-yl)-4-oxobutanamide] |  |  |  |  |  |  |  | < 0.1 | > 10 |  | 1 to 10 | > 10 |  | 

Second part, the molecule after the results:

Row | IC50 [1, 7] [µM] | IC50 [2, 8] [µM] | IC50 [3, 9] [µM] | PI3Ka ([4]; Further Kinobeads Data) | IC50 [5, 10] [µM] | IC50 [6, 11] [µM] | IC50 ([4]; Further Kinobeads Data, read-out: PI3Ka) [µM] | IC50 [1, 12] [µM] | IC50 [2, 13] [µM] | IC50 [3, 14] [µM] | IC50 [4, 15] [µM] | IC50 [5, 16] [µM] | IC50 [6, 17] [µM] | Inhibition values (IC50) PI3Ka ([4]; kinobeads assay, Table 6) | SMILES
8 |  |  |  |  |  |  |  | < 0.1 | > 10 | > 10 | 1 to 10 | 1 to 10 | 1 to 10 |  | CC(=O)N(C)CCC(=O)N1Cc2nc(-c3ccc(NC(=O)NC4CC4)cc3)nc(N3CCOC[C@@H]3C)c2C1 [Example 135, (S)—N-(3-(2-(4-(3-cyclopropylureido)phenyl)-4-(3-methylmorpholino)-5H-pyrrolo[3,4-d]pyrimidin-6(7H)-yl)-3-oxopropyl)-N-methylacetamide]
9 |  |  |  |  |  |  |  | 0.1 to 1 | > 10 | > 10 |  | > 10 | > 10 | D (D >10 μM) | CCOC(=O)N1Cc2nc(-c3ccc(NC(=O)Nc4cccnc4)cc3)nc(N3CCOC[C@@H]3C)c2C1 [Example 118, (S)-ethyl 4-(3-methylmorpholino)-2-(4-(3-(pyridin-3-yl)ureido)phenyl)-5H-pyrrolo[3,4-d]pyrimidine-6(7H)-carboxylate]
10 |  |  |  |  |  |  |  | 0.1 to 1 | > 10 | > 10 |  | > 10 | 1 to 10 | D (D >10 μM) | CCNC(=O)Nc1ccc(-c2nc3c(c(N4CCOC[C@@H]4C)n2)CN(C(=O)C2CCNCC2)C3)cc1F [Example 126, (S)-1-ethyl-3-(2-fluoro-4-(4-(3-methylmorpholino)-6-(piperidine-4-carbonyl)-6,7-dihydro-5H-pyrrolo[3,4-d]pyrimidin-2-yl)phenyl)urea]
